Reference: the NIST ThermoML archive (doi:10.1016/j.tca.2012.11.015)

Assay: molar heat capacity at constant pressure
Settings: 101.33 kPa, Crystal, Small sample (50 mg) DSC

[F][Lu]([F])[F] [lutetium(III) fluoride]
Settings	molar heat capacity at constant pressure [J/K/mol]
399.7 K	96.75
405.1 K	97.02
410.5 K	95.88
415.8 K	95.29
421.1 K	96.94
426.3 K	97.01
431.5 K	96.43
436.7 K	96.58
441.9 K	96.64
447.1 K	96.86
452.2 K	96.8
457.3 K	96.65
462.5 K	95.51
467.6 K	96.35
472.6 K	96.98
477.7 K	97.09
482.8 K	97.11
487.8 K	97.26
492.9 K	97.48
497.9 K	97.58
502.9 K	97.68
508 K	97.97
513 K	98.13
518 K	98.36
523 K	98.49
528 K	98.56
533.1 K	98.68
538.1 K	98.84
543.1 K	98.87
548.1 K	99.13
553.1 K	99.24
558.1 K	99.48
563.1 K	99.09
568.1 K	99.13
573.1 K	99.33
578.1 K	99.5
583.1 K	99.58
588 K	99.58
593 K	99.6
598 K	99.71
603 K	99.98
608 K	100.29
613 K	100.45
618 K	100.4
623 K	100.24
627.9 K	100.69
632.9 K	101.13
637.9 K	100.84
642.9 K	101.01
647.9 K	101.38
652.9 K	101.53
657.9 K	101.67
662.8 K	101.64
667.8 K	101.51
672.8 K	101.61
677.8 K	101.89
682.8 K	102.02
687.8 K	102.07
692.8 K	102.12
697.7 K	102.26
702.7 K	102.44
707.7 K	102.41
712.7 K	102.81
717.7 K	102.66
722.7 K	102.97
727.6 K	102.82
732.6 K	104.53
737.6 K	104.75
742.6 K	104.55
747.6 K	104.86
752.6 K	105.12
757.6 K	104.68
762.6 K	103.97
767.5 K	102.8
772.5 K	103.35
777.5 K	103.53
782.5 K	103
787.5 K	103.29
792.5 K	103.69
797.5 K	103.87
802.4 K	103.76
807.4 K	104.24
812.4 K	103.94
817.4 K	104.08
822.4 K	104.49
827.4 K	104.53
832.4 K	104.46
837.4 K	104.64
842.3 K	104.66
847.3 K	104.56
852.3 K	104.93
857.3 K	104.87
862.3 K	104.94
867.3 K	105.55
872.3 K	105.31
877.3 K	105.62
882.2 K	105.71
887.2 K	105.77
892.2 K	105.39
897.2 K	105.26
902.2 K	105.24
907.2 K	105.2
912.2 K	105.01
917.2 K	103.22
922.2 K	101.86
927.1 K	101.4
932.1 K	101.32
937.1 K	102.01
942.1 K	103.86
947.1 K	104.24
952.1 K	104.41
957.1 K	104.36
962.1 K	105.18
967.1 K	105.18
972.1 K	104.61
977 K	104.97
982 K	105.26
987 K	104.58
992 K	104.27
997 K	104.7
1002 K	104.37
1007 K	105.57
1012 K	107.7
1017 K	107.28
1022 K	106.62
1027 K	106.36
1031.9 K	106.14
1036.9 K	106.21
1041.9 K	106.18
1046.9 K	106.45
1051.9 K	105.23
1056.9 K	104.62
1061.9 K	103.86
1066.9 K	102.81
1071.9 K	104.66
1076.9 K	107.09
1081.9 K	107.68
1086.9 K	108.09
1091.9 K	108.21
1096.9 K	108.47
1101.9 K	108.65
1106.9 K	108.92
1111.9 K	108.53
1116.9 K	109.02
1121.9 K	108.84
1126.9 K	109.6
1131.9 K	109.55
1136.9 K	109.42
1141.8 K	108.84
1146.8 K	109.13
1151.8 K	109.39
1156.8 K	108.91
1161.8 K	108.91
1166.8 K	109.26
1171.8 K	109.47
1176.8 K	109.96
1181.8 K	108.7
1186.8 K	107.48
1191.8 K	106.02
1196.8 K	104.98
1201.8 K	104.23
1206.8 K	104.19
1211.8 K	107.96
